In publication PMC8224453, “A New PqsR Inverse Agonist Potentiates Tobramycin Efficacy to Eradicate Pseudomonas aeruginosa Biofilms” (Advanced Science, 2021):
Converted amounts (≈) assume the structure as drawn. “And” between values parts separate entries of the source, which are not always exact repeats. Equal values may be shown once. Read-outs that look alike come from different tables or passages of the source.

Tests used:
planktonic PA14 wt = assay: MIC assay, microbroth dilution; assay type: cell-based; details: Pseudomonas aeruginosa
Description: composed of 15.5 g/L LB agar, 10 g/L peptone, 5 g/L NaCl and 5 g/L yeast extract, the resulting solution was sterilized before being plated.
The minimum inhibitory concentration […] of drug-free SqNPs, compound 4 prepared either in dimethyl sulfoxide (DMSO) or loaded in SqNPs, free Tob, Tob-loaded SqNPs, and Tob and compound 4 co-loaded SqNPs against planktonic PA14 wt were determined by standard microbroth dilution assays in 96-well plates. PA14 wt suspension was prepared from mid-log cultures in PPGAS medium and diluted to OD600 (absorption at 600 nm) 0.02 (2∙10^7 CFU/mL (CFU, colony-forming units)). PBS served as a control. Following 16 h incubation […]
nm) that were measured using a Tecan microplate reader Infinite M200Pro (Tecan, Crailsheim, Germany). The IC90 values are concentrations at which the growth of bacteria is inhibited by 90%. Three independent experiments were conducted in triplicate. Results are […]
Table S2. MIC assay against PA14 wt. Three independent experiments were conducted in triplicate.
Samples MIC (IC90 value) against PA14 wt
Drug-free SqNPs > 200 µg/mL
Compound (4) prepared in DMSO > 20 µM
Compound (4)-loaded SqNPs > 20 µM (a)
Tob loaded SqNPs 3.125 – 6.25 µg/mL (b)
Tob and compound (4) co-loaded SqNPs 3.125 – 6.25 µg/mL (b)
((4) concentration 20 µM)
(a) Compound (4) concentration
4.3. Minimum Biofilm Eradicating Concentration (MBEC) assay
Chemical and biological materials for in vitro assays. All chemicals were purchased from Sigma-Aldrich unless otherwise specified. Yeast extract was obtained from Fluka. Bacto™ Tryptone were obtained from BD Biosciences. Luria Bertani (LB) agar was obtained from Carl Roth. Gibco® PBS was obtained from Life Technologies. Purified water was prepared by a Milli-Q water purification system (Merk Millipore, Billerica, MA). The PA strain PA14

[1] = Kinetic turbidimetric solubility assay; assay type: physicochemical; details: PBS; for solubility kinetic at 5 min: aqueous buffer, kinetic from dmso stock, read-out: Kinetic solubility S kin
Description: 5.4. Kinetic Turbidimetric Solubility Assay
The desired compounds were sequentially diluted in DMSO in a 96-well plate. A 3 µL of each well were transferred into another three 96-well plates, followed by addition of 147 µL of PBS. Plates were shaken for 5 min at 600 rpm at room temperature (r.t.), and the absorbance at 620 nm was measured. Absorbance values were normalized by blank […]
subtraction and plotted using GraphPad Prism 8.4.2 (GraphPad Software, San Diego, CA, […]

hERG channel = target: T1, hERG channel (Homo sapiens, UniProt Q12809); assay: hERG functional patch-clamp inhibition assay; assay type: cell-based
T1 construct: Cyprotex (contract assay)
T1 sequence (Q12809 whole entry): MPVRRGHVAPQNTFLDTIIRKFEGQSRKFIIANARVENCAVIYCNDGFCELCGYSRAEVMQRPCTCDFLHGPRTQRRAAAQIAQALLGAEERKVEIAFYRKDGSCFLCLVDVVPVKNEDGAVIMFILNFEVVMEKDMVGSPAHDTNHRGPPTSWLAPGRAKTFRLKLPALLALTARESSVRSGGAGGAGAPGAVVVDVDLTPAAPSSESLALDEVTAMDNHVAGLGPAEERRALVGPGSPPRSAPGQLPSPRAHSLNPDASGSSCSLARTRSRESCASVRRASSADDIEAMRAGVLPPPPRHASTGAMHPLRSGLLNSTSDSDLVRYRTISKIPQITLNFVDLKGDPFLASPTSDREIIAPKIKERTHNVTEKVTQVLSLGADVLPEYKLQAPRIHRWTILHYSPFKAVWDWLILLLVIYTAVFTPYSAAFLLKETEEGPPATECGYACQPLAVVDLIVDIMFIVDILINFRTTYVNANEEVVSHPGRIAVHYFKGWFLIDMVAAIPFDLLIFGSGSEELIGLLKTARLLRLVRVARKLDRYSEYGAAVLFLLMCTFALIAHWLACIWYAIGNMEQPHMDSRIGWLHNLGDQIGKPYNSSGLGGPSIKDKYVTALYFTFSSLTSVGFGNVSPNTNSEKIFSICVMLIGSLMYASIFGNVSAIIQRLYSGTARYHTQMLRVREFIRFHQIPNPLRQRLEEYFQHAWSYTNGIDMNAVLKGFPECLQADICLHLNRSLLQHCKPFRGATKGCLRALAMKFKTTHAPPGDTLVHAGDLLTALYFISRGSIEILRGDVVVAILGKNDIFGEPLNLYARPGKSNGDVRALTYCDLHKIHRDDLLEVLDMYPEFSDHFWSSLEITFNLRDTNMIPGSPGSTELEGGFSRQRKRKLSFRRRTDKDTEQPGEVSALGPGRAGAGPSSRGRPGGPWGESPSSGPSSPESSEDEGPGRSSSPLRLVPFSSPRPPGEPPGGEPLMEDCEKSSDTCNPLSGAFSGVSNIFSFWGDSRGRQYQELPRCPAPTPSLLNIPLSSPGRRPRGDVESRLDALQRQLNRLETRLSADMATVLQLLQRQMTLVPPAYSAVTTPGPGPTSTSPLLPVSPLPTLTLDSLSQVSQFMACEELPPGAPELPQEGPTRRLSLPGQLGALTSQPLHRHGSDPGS
Description: (§1) 5.2. CYP and hERG inhibition
(§2) Assessment of in vitro drug safety regarding Cytochrom P450 (CYP) inhibition and inhibiton of human ether-à-go-go related gene (hERG) channel with a functional (patch-clamp-based) assay were performed at Cyprotex. Detailed information about the assays can be found in: https://www.cyprotex.com/admepk/in-vitro-metabolism/cytochrome-p450-inhibition, and […]

CYP2D6 = target: T2, CYP2D6 (Homo sapiens, UniProt P10635); assay: CYP inhibition (Cyprotex); assay type: in vitro ADME; details: read-out: CYP inhibition 2D6
T2 construct: Cyprotex (contract assay)
T2 sequence (P10635 whole entry): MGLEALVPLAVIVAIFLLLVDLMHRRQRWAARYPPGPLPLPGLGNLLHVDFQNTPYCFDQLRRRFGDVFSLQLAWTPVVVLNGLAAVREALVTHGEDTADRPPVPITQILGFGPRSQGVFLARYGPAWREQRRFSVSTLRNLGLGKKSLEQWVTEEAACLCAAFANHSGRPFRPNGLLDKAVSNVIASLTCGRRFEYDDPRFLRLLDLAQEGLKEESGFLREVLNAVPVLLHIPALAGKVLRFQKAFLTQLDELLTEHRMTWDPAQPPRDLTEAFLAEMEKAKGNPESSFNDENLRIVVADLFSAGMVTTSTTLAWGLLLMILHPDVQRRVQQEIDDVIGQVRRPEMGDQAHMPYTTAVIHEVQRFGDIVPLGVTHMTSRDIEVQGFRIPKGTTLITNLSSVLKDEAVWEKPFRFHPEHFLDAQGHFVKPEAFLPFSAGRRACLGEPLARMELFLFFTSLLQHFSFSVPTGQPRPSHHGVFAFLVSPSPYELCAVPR
Description: as §1, §2

CYP3A4 = target: T3, CYP3A4 (Homo sapiens, UniProt P08684); assay: CYP inhibition (Cyprotex); assay type: in vitro ADME; details: read-out: CYP inhibition 3A4
T3 construct: Cyprotex (contract assay)
T3 sequence (P08684 whole entry): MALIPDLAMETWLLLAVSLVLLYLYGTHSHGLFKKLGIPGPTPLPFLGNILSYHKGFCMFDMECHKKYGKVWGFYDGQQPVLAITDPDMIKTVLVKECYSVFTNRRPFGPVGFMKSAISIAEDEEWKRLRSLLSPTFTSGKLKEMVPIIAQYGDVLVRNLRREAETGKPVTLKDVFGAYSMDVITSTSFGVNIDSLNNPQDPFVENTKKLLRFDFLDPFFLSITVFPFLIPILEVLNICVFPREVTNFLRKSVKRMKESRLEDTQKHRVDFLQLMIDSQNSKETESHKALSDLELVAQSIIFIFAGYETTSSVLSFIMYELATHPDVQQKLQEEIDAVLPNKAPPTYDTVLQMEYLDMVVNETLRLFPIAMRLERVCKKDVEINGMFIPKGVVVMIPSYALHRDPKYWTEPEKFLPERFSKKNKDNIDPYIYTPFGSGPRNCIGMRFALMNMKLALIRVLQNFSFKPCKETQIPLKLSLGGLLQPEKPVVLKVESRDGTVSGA
Description: as §1, §2

CYP2C19 = target: T4, CYP2C19 (Homo sapiens, UniProt P33261); assay: CYP inhibition (Cyprotex); assay type: in vitro ADME; details: read-out: CYP inhibition 2C19
T4 construct: Cyprotex (contract assay)
T4 sequence (P33261 whole entry): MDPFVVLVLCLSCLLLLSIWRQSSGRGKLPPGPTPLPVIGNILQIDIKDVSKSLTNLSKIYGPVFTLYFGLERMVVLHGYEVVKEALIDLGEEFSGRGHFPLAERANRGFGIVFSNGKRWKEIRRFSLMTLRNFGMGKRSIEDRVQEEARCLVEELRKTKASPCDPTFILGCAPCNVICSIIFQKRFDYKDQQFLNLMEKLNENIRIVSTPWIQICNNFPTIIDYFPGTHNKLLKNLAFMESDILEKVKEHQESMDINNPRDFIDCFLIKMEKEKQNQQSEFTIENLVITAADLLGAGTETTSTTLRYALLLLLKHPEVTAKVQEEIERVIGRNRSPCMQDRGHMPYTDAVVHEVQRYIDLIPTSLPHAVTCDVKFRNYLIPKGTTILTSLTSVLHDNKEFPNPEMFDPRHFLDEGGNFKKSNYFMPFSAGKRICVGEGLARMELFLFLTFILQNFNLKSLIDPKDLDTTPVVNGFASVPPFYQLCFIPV
Description: as §1, §2

CYP1A = target: T5, CYP1A (Homo sapiens, UniProt P05177); assay: CYP inhibition (Cyprotex); assay type: in vitro ADME; details: read-out: CYP inhibition 1A
T5 construct: Cyprotex (contract assay)
T5 sequence (P05177 2-516 limits assumed): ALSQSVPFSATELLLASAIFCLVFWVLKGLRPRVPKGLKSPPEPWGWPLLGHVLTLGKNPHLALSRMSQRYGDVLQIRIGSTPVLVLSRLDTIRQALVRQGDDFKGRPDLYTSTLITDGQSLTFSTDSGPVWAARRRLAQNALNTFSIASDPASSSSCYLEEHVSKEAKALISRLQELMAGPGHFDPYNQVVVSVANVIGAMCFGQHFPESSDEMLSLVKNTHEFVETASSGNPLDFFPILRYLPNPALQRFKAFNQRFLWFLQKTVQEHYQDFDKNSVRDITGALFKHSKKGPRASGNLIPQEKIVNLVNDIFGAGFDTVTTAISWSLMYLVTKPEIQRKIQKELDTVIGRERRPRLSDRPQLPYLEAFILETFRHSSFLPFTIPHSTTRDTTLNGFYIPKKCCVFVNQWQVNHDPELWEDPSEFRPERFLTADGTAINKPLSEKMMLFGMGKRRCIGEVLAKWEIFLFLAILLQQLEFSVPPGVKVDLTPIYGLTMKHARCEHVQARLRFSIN
Description: as §1, §2

CYP2C9 = target: T6, CYP2C9 (Homo sapiens, UniProt P11712); assay: CYP inhibition (Cyprotex); assay type: in vitro ADME; details: read-out: CYP inhibition 2C9
T6 construct: Cyprotex (contract assay)
T6 sequence (P11712 whole entry): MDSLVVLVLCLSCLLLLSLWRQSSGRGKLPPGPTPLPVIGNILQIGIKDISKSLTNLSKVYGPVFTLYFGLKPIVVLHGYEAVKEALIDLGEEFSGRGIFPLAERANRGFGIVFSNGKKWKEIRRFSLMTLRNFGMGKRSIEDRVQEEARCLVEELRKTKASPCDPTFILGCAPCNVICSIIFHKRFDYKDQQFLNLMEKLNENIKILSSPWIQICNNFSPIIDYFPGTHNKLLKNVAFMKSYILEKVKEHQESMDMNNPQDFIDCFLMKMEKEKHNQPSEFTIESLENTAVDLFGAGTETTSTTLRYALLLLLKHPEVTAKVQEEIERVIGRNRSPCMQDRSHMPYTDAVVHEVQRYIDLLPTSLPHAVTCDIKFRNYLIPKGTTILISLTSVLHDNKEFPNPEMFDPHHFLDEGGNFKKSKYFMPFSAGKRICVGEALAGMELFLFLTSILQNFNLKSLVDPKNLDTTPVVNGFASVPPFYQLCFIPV
Description: as §1, §2

[2] = tested on: pyocyanin production in PA14 wt; assay: Pyocyanin assay in PA14 wt; assay type: cell-based; details: Pseudomonas aeruginosa, PA14, read-out: IC50 pyocyanin
Description: The pyocyanin inhibitory effect of the synthesized compounds and the compound (4) loaded SqNPs on PA14 wt were investigated by pyocyanin assay as described in previous work.[2,5] Briefly, PA14 wt was grown in PPGAS medium, overnight, at 37 °C, shaking at 200 rpm. The bacterial suspension was then centrifuged at 7.450 g, washed twice and diluted to a final OD600 (absorption at 600 nm) of 0.02 (2∙10^7 CFU/mL) in fresh PPGAS. 1.5 mL of the […]
(1 picture or pasted object on this page, not shown here) […]
culture was distributed in each well of the 24 well-plate. The free synthesized QSI prepared in DMSO, compound (4) loaded SqNPs were supplemented to bacteria-containing wells (1:100 dilutions). PA14 wt treated with either PBS or drug-free SqNPs (200 μg/mL) served as controls. Following 16 h incubation under aerobic conditions, pyocyanin in 900 μL of bacteria culture was extracted with chloroform and re-extracted with 0.2 M HCl. Pyocyanin production level was measured as the absorption at 520 nm, which was normalized to cell growth measured as OD600. 0.2 M HCl served as blank samples. Three independent experiments were conducted in triplicate. Non-linear regression analysis was performed using […]
(4) loaded SqNPs on PA14 wt. The pyocyanin inhibitory efficacy was improved by a factor of […]
It is noted that as reported in our prior
Figure S2. The production of pyocyanin levels compared to control PA14 wide type (wt) of the samples treated with 200 μg/mL drug free SqNPs. Three independent experiments were conducted in triplicate. […]
(also on this page, place not known: ( 4) -containing -free bacteria re -extracted compo und ( 4) (IC 50 nM ) (IC 50 nM ). drug P A14 5,6,7,8 -tetradeutero-2-heptyl-4(1H)-quinolone standa rd -40 -20 0 20 40 60 80 100 120 0.005 0.05 0.5 pyo production inhibition [%] Compound concentration loaded SqNPs [µM] IC50 = 100 ± 0.018 [nM])

Row | MIC (planktonic PA14 wt; PA14, Tob concentration, 16 h, read-out: MIC (IC90 value) against PA14 wt) [mg/L] | MIC (planktonic PA14 wt; PA14 wt, read-out: MIC in the planktonic setting) [mg/L] | SMILES | MIC (planktonic PA14 wt; PA14, compound (4) concentration, 16 h, read-out: MIC (IC90 value) against PA14 wt) [µM] | solubility kinetic at 5 min [1] [µM] | IC50 (hERG channel) [µM] | IC50 (CYP2D6) [µM] | IC50 (CYP3A4) [µM] | IC50 (CYP2C19) | IC50 (CYP1A) [µM] | IC50 (CYP2C9) [µM] | IC50 [2] [µM] | Kinetic solubility S kin [1] [µM]
1 |  |  | FC(F)(F)c1cc(NCc2cn(-c3ccc(Oc4ccccc4)cc3)nn2)ccn1 [Compound 4] | > 20 | 7.7 (≈ 3.17 µg/mL) | > 25 | > 25 | 15 | 20.3 µM | > 25 | 16.4 | 0.199 | 
2 | 3.12 to 6.25 | 3.12 to 6.25 | NC[C@H]1O[C@H](O[C@H]2[C@H](O)[C@@H](O[C@H]3O[C@H](CO)[C@@H](O)[C@H](N)[C@H]3O)[C@H](N)C[C@@H]2N)[C@H](N)C[C@@H]1O [Tobramycin, tobramycin] |  |  |  |  |  |  |  |  |  | 
3 |  |  | COc1ccc(-n2cc(CNc3ccnc(C(F)(F)F)c3)nn2)cc1Cl [Compound 17] |  | 64 (≈ 24.6 µg/mL) | > 25 | > 25 | > 25 | 3.6 µM and 3.55 µM | 22.1 | > 25 | 0.35 | 64.1
